Results reported in patent US10118928B2, “Treatment of H. pylori infections using MTAN inhibitors” (ALBERT EINSTEIN COLLEGE OF MEDICINE, INC., priority 2014, dated 2018).
Values after ≈ are worked out from the molar mass of the structure shown. Like-named read-outs stand apart in the source and are kept apart here.

Columns and labels:
[1] = Concentration in mouse gastric mucin after a single oral dose; assay type: in vivo; conditions: for concentration at 0.25 h / concentration at 0.5 h / concentration at 1 h / concentration at 2 h / concentration at 4 h / concentration at 8 h / concentration at 12 h / concentration at 24 h: C57/BL6, mouse, gastric mucin, po, 10 mg/kg, mouse; for concentration at 0.25 h: 0.25 h after single dose 10 mg/kg PO; for concentration at 0.5 h: 0.50 h after single dose 10 mg/kg PO; for concentration at 1 h: 1.00 h after single dose 10 mg/kg PO; for concentration at 2 h: 2.00 h after single dose 10 mg/kg PO; for concentration at 4 h: 4.00 h after single dose 10 mg/kg PO; for concentration at 8 h: 8.00 h after single dose 10 mg/kg PO; for concentration at 12 h: 12.0 h after single dose 10 mg/kg PO; for concentration at 24 h: 24.0 h after single dose 10 mg/kg PO
Protocol: (a) Oral Dosing of Mice with 10 mg/kg Hexyl-SerMe-Immucillin A: Female C57/BL6 mice ranging from 5-6 weeks in age and 18-22 grams in weight (Harlan Laboratories) were dosed by oral gavage with of Hexyl-SerMe-Immucillin A (0.4 mL of a 0.5 mg/mL solution in water for injection).
(b) Mucin Sampling: Mice (3 mice/time point) were euthanized via CO2 inhalation at 0.25, 0.5, 1, 2, 4, 8, 12 and 24 h, then the mucin layer was scraped from the longitudinally dissected stomach using a glass slide, collected and weighed.
(c) Preparation of Gastric Mucin Homogenates: Approximately 30 mg of mouse mucin was weighted into a 2 mL homogenizer tube (prefilled with 3.0 mm i.d. zirconium beads) and mixed with 0.2 mL PBS buffer. This was homogenized for 3 min at 4,000 rpm in a Beadbug D1030 (Benchmark Scientific) homogenizer.
(d) Extraction of Gastric Mucin Homogenates: Samples of mucin homogenate (50 μL) and of internal standard (see below) in water (10 μL) were treated with trichloroacetic acid (30% w/v, 30 μL), diluted with water (160 μL), vortexed for 10 sec and sonicated for 10 min, then centrifuged at 14,500 rpm for 5 min. A sample of the supernatant (160 μL) was transferred into autosampler vials. The internal standard was Butylthio-DADMe-Immucillin-H at 5.0 and 20.0 μg/mL.
(f) HPLC-MS-MS Analysis: Aliquots of supernatant (10 μL) were injected for analysis on Surveyor HPLC system (Thermo) fitted with an ACE 3 C18 Column (50×3 mm, 3 μm particles), with gradient elution at 30° C. with 400 μL/min mobile phase comprised of mixtures of 0.1% trifluoroacetic acid in water (A) and methanol (B) as follows: 0-5 min, A:B 9:1; 5-6.1 min, A:B 1:9; 6.1-10 min A:B 9:1. Hexyl-SerMe-Immucillin A eluted at 4.41±0.003 min. Detection was ESI MS/MS using a LCQ Deca (Thermo) in selected-reaction monitoring (SRM) positive mode using the MS/MS event m/z 292.2→147.2 and ion spray voltage of 4.5 kV.

[2] = test system: H. pylori UNT189-1 (ATCC43504); test: MIC by agar dilution (MHIIb agar), strain UNT189-1; assay type: cell-based; conditions: Helicobacter pylori, 72 h
Protocol: (§1) (a) Sample Plate Preparation: Aliquots of a 2-fold serial dilution of Hexyl-SerMe-Immucillin A (from 62.5 μg/mL-6.25 μg/mL in DMSO, 0.02 mL) were mixed into separate 2 mL molten MHIIb agar, and poured into separate wells on each well of a 12-well plate, allowed to set for 20-30 minutes and dry in a biosafety cabinet for 10 minutes prior to Inoculation.
(§2) (b) Inoculation: Frozen inoculate stock of H. pylori strains UNT020-1 (Sydney Strain SS1) and UNT189-1 (ATCC43504) was separately streaked onto Columbia+5% sheep blood agar and microaerophilically incubated for 72 h at 37° C. The plate cultures of the H. pylori strains were then harvested in 0.9% sterile saline solution and the OD at 530 nm of the suspension was determined. The OD of each suspension was adjusted to 1.5-2.0 by dilution into 0.9% sterile saline. The UNT020-1 suspension was further diluted 2:5, but the UNT189-1 suspension was not further diluted, and these were used to inoculate the agar plates. Samples of the suspensions (3 μL) were spotted onto the MHIIb agar wells in the 12-well plate. The CFU/mL of each inoculum was confirmed by generating a 10-fold serial dilution of each inoculum in 0.9% sterile saline and spotting 8 μL of each dilution onto Columbia+5% sheep blood agar plates. After allowing the spots to dry for 10 min, the plates were placed into a microaerophilic chamber and incubated at 37° C. for 72 h.

[3] = test system: H. pylori UNT020-1 (Sydney Strain SS1); test: MIC by agar dilution (MHIIb agar), strain UNT020-1; assay type: cell-based; conditions: Helicobacter pylori, 72 h
Protocol: as §1, §2

[4] = female, read-out: concentration in gastric mucin, Animal-1
[5] = female, read-out: concentration in gastric mucin, Animal-2
[6] = female, read-out: concentration in gastric mucin, Animal-3
[7] = female, read-out: concentration in gastric mucin, Mean

CCCCCC[C@@H](CO)NCc1c[nH]c2c(N)ncnc12 [Hexyl-SerMe-Immucillin A, (2S)-2-[({4-Amino-5H-pyrrolo[3,2-d]pyrimidin-7-yl}methyl)amino]octan-1-ol]
concentration at 0.25 h [1, 4]: 60400 ng/g
concentration at 0.25 h [1, 5]: 64400 ng/g
concentration at 0.25 h [1, 6]: 45900 ng/g
concentration at 0.25 h [1, 7]: 56900 ng/g
concentration at 0.5 h [1, 4]: 46200 ng/g
concentration at 0.5 h [1, 5]: 90200 ng/g
concentration at 0.5 h [1, 6]: 60200 ng/g
concentration at 0.5 h [1, 7]: 65500 ng/g
concentration at 1 h [1, 4]: 20400 ng/g
concentration at 1 h [1, 5]: 12200 ng/g
concentration at 1 h [1, 6]: 12000 ng/g
concentration at 1 h [1, 7]: 14900 ng/g
concentration at 2 h [1, 4]: 2020 ng/g
concentration at 2 h [1, 5]: 1080 ng/g
concentration at 2 h [1, 6]: 16200 ng/g
concentration at 2 h [1, 7]: 6440 ng/g
concentration at 4 h [1, 4]: 670 ng/g
concentration at 4 h [1, 5]: 3740 ng/g
concentration at 4 h [1, 6]: 910 ng/g
concentration at 4 h [1, 7]: 1770 ng/g
concentration at 8 h [1, 4]: 650 ng/g
concentration at 8 h [1, 5]: 1620 ng/g
concentration at 8 h [1, 6]: 530 ng/g
concentration at 8 h [1, 7]: 930 ng/g
concentration at 12 h [1, 4]: 960 ng/g
concentration at 12 h [1, 5]: 950 ng/g
concentration at 12 h [1, 6]: 330 ng/g
concentration at 12 h [1, 7]: 740 ng/g
concentration at 24 h [1, 4]: 540 ng/g
concentration at 24 h [1, 5]: 390 ng/g
concentration at 24 h [1, 6]: 300 ng/g
concentration at 24 h [1, 7]: 410 ng/g
Cmax ([1]; female, C57/BL6, mouse gastric mucin, 10 mg/kg oral gavage): 65500 ng/g
half-life ([1]; female, C57/BL6, mouse gastric mucin, 10 mg/kg oral gavage, read-out: terminal half-life (converted)): 2.72 h
total exposure [AUC(0-inf)] ([1]; mouse gastric mucin, 10 mg/kg oral gavage): 78.6 µg·h/g
MIC [2]: 1.9 ng/mL (≈ 6.52 nM)
MIC [3]: 1.9 ng/mL (≈ 6.52 nM)
